The source made the active and inactive calls.
Experiments:
[1] = target: Polyadenylate-binding protein 1 (Homo sapiens, UniProt P11940); assay: blockers of PABP interaction with poly(A) – biochemical, fluorescence polarization, […] (AID 2014)
[2] = target: Eukaryotic translation initiation factor 4H (Homo sapiens, UniProt Q15056); assay: eIF4H binding inhibition – biochemical, uHTS, fluorescence polarization, translation initiation inhibitor project, primary screen (AID 2012)
[3] = target: DNA dC->dU-editing enzyme APOBEC-3A (Homo sapiens, UniProt P31941); assay: Dose Response confirmation of small molecule APOBEC3A DNA Deaminase Inhibitors via a fluorescence-based single-stranded DNA deaminase assay. [Related pubchem assays (depositor defined):AID493011, AID493024]; format: functional
DNA dC->dU-editing enzyme APOBEC-3A, sequence (P31941 whole entry): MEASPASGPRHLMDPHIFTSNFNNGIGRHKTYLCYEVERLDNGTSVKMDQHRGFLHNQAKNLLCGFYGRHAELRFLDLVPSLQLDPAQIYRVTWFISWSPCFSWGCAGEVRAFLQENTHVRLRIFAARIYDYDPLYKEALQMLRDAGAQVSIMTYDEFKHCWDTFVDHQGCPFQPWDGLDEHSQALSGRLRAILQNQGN

[4] = target: DNA dC->dU-editing enzyme APOBEC-3G (Homo sapiens, UniProt Q9HC16); format: functional;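 also: Dose-response counterscreen measuring inhibition of APOBEC3G DNA deaminase activity, run while confirming APOBEC3A inhibitors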
DNA dC->dU-editing enzyme APOBEC-3G, sequence (Q9HC16 whole entry): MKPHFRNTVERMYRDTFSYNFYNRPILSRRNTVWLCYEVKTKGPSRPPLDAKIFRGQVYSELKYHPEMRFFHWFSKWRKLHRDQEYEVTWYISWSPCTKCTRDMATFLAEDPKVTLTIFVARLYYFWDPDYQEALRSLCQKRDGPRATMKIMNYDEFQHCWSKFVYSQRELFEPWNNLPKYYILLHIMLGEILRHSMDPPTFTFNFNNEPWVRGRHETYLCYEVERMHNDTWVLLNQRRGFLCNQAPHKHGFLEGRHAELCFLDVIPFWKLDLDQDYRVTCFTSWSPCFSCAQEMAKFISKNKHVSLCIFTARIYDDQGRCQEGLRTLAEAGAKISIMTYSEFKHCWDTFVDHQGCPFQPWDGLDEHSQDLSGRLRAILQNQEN

[5] = target: Eukaryotic translation initiation factor 4E (Mus musculus, UniProt P63073); assay: blockers of eIF4G binding by eIF4E – biochemical, TR-FRET, dose response (AID 855); format: functional;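 also: potency for disrupting eIF4E binding to eIF4GI seen as loss of FRET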
Eukaryotic translation initiation factor 4E, sequence (P63073 whole entry): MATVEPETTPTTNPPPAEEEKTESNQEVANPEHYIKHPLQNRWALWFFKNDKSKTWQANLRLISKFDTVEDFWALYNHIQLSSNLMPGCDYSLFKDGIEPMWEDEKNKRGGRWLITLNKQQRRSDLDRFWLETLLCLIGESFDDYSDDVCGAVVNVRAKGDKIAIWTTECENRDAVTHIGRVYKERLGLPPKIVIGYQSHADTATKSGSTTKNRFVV

Estrogen receptor = target: T1, Estrogen receptor (Homo sapiens, UniProt P03372);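 also: potency for inhibiting coactivator peptide recruitment to the receptor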
T1 sequence (P03372 whole entry): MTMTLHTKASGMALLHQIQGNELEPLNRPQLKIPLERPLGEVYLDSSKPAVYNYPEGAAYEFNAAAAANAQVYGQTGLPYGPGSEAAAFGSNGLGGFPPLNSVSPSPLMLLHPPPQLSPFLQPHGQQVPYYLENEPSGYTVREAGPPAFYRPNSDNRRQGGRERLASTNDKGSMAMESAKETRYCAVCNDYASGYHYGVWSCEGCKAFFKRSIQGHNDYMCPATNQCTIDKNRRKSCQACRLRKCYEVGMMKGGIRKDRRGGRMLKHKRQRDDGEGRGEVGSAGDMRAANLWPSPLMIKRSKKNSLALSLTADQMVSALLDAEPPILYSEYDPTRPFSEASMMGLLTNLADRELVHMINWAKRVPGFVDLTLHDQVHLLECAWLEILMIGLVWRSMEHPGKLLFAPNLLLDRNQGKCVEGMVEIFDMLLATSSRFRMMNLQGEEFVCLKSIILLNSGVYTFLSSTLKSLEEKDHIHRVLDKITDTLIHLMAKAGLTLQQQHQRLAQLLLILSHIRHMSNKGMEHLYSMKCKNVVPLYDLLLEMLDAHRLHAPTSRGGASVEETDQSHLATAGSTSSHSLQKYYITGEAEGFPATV

Bcl-2-related protein A1 [6] = target: T2, Bcl-2-related protein A1 (Mus musculus, UniProt Q07440); assay: small-molecule antagonists of Bfl-1/BH3 interaction – biochemical, TR-FRET, mouse Bfl-1, confirmation (AID 621);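 also: TR-FRET binding of GST-Bfl-1 to FITC-labelled Bid peptide via terbium antibody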
T2 sequence (Q07440 whole entry): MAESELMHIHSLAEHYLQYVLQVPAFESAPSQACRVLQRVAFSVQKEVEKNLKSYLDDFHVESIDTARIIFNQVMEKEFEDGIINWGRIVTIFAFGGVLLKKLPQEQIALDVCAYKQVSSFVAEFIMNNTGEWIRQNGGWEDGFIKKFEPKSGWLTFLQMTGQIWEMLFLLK

[7] = target: Glyceraldehyde-3-phosphate dehydrogenase (Homo sapiens, UniProt P04406)
Glyceraldehyde-3-phosphate dehydrogenase, sequence (P04406 whole entry): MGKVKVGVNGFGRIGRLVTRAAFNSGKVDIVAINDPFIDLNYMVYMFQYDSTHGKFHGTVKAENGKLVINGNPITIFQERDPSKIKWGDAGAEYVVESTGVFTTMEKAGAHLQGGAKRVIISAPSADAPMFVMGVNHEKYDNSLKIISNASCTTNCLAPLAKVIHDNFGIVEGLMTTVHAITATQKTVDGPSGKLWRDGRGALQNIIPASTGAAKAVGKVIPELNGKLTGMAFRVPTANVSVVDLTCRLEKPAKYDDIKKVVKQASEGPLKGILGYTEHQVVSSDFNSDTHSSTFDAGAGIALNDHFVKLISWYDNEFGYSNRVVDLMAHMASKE

Bcl-2-related protein A1 [8] = target: T2, Bcl-2-related protein A1; assay: Bfl-1 binding inhibitors, SAR follow-up, biochemical, fluorescence polarization (AID 1070)
[9] = NIH3T3 cell viability loss – ATP luminescence, mouse fibroblasts, counter-screen, dose response (AID 2010); format: functional, cell-based;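 also: cells exposed to compound for about 90 hours before reading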
[10] = Trypanosoma cruzi growth suppression in host cells – NIH3T3 host cells, beta-gal luminescence, confirmation (AID 2044); format: functional, cell-based;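 also: intracellular parasites grown in NIH/3T3 mouse fibroblasts as host cells; luminescent beta-galactosidase reporter signal from transgenic T. cruzi replicating inside host cells; inhibitors lower the luminescence signal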
[11] = target: T3, Short transient receptor potential channel 4 (Mus musculus, UniProt Q9QUQ5); assay: calcium entry via TRPC4 opening agents – cell-based, HEK293 TRPC4/mu-opioid, Fluo-4 calcium, dose response (AID 434937); format: functional
T3 sequence (Q9QUQ5 whole entry): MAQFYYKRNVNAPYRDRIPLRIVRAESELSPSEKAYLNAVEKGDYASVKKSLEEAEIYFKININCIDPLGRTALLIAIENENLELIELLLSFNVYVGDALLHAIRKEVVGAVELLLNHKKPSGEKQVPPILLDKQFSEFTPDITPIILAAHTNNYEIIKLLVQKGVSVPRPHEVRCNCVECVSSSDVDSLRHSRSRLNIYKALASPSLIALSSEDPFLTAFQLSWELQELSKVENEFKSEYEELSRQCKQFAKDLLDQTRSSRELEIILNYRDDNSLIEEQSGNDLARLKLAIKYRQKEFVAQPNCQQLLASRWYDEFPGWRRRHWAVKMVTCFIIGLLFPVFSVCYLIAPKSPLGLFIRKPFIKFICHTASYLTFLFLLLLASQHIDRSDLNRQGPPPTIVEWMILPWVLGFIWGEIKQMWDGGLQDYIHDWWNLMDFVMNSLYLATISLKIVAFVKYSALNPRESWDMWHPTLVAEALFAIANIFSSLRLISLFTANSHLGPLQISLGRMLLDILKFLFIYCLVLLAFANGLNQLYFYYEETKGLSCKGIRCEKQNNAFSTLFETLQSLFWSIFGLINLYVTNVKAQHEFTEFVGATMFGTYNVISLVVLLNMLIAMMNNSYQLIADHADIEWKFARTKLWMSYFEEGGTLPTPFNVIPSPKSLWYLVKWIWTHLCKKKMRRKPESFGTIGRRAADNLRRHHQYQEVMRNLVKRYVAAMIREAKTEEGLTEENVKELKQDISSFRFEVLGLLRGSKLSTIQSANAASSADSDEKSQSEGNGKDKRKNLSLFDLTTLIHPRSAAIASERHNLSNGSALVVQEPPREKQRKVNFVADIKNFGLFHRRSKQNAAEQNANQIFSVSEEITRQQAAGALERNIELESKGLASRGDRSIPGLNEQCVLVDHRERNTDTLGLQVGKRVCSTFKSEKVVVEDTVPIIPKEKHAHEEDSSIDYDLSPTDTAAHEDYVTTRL

cells [12] = assay: cells
cells [13] = assay: cells; remark: listed apart in the source
[14] = viability of uninfected HEp-2 cells – cell-based, HTS, cytotoxicity control for RSV inhibitor project, dose response (AID 2410); format: functional; details: human respiratory syncytial virus
[15] = blockade of melanocortin 4 receptor signaling – cell-based, plate reader, cherry pick, counter-screen for LGR2 antagonist project, dose response (AID 743444); format: functional;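 also: transfected HEK 293 cells stimulated with alpha-MSH peptide; potency of inhibitors of the alpha-MSH evoked signal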
[16] = target: Induced myeloid leukemia cell differentiation protein Mcl-1 (Homo sapiens, UniProt Q07820); format: functional
Induced myeloid leukemia cell differentiation protein Mcl-1, sequence (Q07820 whole entry): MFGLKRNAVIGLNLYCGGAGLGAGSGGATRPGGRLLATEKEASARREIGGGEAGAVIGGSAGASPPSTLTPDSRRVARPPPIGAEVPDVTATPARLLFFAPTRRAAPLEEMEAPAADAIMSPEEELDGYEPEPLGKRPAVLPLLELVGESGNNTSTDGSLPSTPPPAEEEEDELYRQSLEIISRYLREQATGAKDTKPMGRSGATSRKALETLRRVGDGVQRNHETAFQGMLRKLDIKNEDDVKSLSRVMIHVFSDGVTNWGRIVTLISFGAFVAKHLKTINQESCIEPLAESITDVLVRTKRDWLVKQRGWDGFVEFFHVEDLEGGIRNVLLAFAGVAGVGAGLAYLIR

Streptococcus = assay: GAS UMAA2166 growth inhibition – luminescence, BacTiterGlo, counter-screen for streptokinase expression inhibitor project, dose response (AID 1915); format: functional, organism-based;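 also: potency for reduction of bacterial viability or growth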
Streptokinase A = target: T4, Streptokinase A (Streptococcus pyogenes serotype M1, UniProt P10520); assay: viability-normalized secreted streptokinase activity reduction – plasminogen activation absorbance, OD405, dose response (AID 1914); format: functional, Streptococcus pyogenes M1 GAS;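 also: secreted streptokinase activity via plasminogen activation per viability signal from cell pellet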
T4 sequence (P10520 whole entry): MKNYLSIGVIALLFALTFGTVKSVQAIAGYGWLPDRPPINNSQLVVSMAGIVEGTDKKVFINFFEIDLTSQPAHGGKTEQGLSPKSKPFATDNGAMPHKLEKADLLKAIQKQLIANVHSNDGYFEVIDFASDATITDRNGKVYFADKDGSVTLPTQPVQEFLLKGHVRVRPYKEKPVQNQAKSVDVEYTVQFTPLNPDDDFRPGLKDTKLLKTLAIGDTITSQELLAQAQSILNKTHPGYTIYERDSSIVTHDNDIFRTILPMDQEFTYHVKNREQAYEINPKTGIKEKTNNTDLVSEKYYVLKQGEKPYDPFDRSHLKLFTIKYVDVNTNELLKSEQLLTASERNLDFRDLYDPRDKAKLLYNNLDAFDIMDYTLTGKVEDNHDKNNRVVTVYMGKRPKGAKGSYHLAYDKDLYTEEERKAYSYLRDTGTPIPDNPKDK

[17] = blockers of bursicon-stimulated LGR2 cAMP reporter – cell-based, HEK293, CRE-luciferase reporter, cherry pick, set 2, dose response (AID 743343); format: functional;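 also: transfected cells were stimulated with diluted bursicon conditioned medium after compound addition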
[18] = system: Streptococcus sp. 'group A'; assay: Streptococcus pyogenes SK(-)GAS viability under kanamycin – luminescence, BacTiterGlo, confirmation, counter-screen for streptokinase expression inhibitor project, dose response (AID 1900); format: functional, organism-based
[19] = target: T5, Calpain-2 catalytic subunit (Sus scrofa, UniProt P43367); assay: m-calpain protease blockers, concentration series – biochemical, fluorogenic peptide substrate, dose response (AID 1420); format: functional
T5 sequence (P43367 whole entry): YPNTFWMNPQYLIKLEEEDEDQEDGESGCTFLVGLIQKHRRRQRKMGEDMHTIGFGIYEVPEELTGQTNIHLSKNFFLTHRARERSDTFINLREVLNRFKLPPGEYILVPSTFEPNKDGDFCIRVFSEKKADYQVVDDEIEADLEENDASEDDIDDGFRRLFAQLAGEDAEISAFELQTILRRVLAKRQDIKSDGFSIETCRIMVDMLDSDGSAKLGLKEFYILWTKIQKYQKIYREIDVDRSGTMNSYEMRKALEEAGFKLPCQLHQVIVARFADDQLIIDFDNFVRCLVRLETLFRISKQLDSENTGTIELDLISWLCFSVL

[20] = target: T6, Microphthalmia-associated transcription factor (Homo sapiens, UniProt O75030); assay: reducers of TRPM1 reporter luminescence, concentration series – cell-based, SK-MEL-5, cherry-picked, set 3, MITF inhibitor project, dose response (AID 493073); format: functional;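 also: SK-MEL-5 melanoma cells with luciferase driven by the MITF target TRPM1 promoter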
T6 sequence (O75030 whole entry): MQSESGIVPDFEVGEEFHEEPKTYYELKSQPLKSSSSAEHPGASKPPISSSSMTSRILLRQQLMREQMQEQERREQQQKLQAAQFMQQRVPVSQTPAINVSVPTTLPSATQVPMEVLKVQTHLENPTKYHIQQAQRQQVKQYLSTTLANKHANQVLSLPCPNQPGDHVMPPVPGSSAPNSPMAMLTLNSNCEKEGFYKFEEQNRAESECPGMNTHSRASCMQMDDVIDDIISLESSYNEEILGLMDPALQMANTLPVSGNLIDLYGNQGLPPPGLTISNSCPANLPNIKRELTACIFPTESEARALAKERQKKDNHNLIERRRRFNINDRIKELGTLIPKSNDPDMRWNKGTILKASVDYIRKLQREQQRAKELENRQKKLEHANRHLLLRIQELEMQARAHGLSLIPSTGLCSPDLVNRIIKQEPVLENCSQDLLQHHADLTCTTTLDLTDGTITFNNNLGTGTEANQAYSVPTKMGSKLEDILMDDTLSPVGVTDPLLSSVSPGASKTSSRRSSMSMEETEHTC

[21] = target: T3, Short transient receptor potential channel 4; assay: block of DAMGO-driven TRPC4 calcium entry – cell-based, HEK293 TRPC4/mu-opioid, Fluo-4 calcium, dose response (AID 434942); format: functional;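 also: potency of inhibitors blocking the TRPC4 calcium response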
[22] = target: Voltage-dependent T-type calcium channel subunit alpha-1H (Homo sapiens, UniProt O95180); format: functional;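 also: channel activity triggered by adding a high calcium stimulation buffer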
Voltage-dependent T-type calcium channel subunit alpha-1H, sequence (O95180 whole entry): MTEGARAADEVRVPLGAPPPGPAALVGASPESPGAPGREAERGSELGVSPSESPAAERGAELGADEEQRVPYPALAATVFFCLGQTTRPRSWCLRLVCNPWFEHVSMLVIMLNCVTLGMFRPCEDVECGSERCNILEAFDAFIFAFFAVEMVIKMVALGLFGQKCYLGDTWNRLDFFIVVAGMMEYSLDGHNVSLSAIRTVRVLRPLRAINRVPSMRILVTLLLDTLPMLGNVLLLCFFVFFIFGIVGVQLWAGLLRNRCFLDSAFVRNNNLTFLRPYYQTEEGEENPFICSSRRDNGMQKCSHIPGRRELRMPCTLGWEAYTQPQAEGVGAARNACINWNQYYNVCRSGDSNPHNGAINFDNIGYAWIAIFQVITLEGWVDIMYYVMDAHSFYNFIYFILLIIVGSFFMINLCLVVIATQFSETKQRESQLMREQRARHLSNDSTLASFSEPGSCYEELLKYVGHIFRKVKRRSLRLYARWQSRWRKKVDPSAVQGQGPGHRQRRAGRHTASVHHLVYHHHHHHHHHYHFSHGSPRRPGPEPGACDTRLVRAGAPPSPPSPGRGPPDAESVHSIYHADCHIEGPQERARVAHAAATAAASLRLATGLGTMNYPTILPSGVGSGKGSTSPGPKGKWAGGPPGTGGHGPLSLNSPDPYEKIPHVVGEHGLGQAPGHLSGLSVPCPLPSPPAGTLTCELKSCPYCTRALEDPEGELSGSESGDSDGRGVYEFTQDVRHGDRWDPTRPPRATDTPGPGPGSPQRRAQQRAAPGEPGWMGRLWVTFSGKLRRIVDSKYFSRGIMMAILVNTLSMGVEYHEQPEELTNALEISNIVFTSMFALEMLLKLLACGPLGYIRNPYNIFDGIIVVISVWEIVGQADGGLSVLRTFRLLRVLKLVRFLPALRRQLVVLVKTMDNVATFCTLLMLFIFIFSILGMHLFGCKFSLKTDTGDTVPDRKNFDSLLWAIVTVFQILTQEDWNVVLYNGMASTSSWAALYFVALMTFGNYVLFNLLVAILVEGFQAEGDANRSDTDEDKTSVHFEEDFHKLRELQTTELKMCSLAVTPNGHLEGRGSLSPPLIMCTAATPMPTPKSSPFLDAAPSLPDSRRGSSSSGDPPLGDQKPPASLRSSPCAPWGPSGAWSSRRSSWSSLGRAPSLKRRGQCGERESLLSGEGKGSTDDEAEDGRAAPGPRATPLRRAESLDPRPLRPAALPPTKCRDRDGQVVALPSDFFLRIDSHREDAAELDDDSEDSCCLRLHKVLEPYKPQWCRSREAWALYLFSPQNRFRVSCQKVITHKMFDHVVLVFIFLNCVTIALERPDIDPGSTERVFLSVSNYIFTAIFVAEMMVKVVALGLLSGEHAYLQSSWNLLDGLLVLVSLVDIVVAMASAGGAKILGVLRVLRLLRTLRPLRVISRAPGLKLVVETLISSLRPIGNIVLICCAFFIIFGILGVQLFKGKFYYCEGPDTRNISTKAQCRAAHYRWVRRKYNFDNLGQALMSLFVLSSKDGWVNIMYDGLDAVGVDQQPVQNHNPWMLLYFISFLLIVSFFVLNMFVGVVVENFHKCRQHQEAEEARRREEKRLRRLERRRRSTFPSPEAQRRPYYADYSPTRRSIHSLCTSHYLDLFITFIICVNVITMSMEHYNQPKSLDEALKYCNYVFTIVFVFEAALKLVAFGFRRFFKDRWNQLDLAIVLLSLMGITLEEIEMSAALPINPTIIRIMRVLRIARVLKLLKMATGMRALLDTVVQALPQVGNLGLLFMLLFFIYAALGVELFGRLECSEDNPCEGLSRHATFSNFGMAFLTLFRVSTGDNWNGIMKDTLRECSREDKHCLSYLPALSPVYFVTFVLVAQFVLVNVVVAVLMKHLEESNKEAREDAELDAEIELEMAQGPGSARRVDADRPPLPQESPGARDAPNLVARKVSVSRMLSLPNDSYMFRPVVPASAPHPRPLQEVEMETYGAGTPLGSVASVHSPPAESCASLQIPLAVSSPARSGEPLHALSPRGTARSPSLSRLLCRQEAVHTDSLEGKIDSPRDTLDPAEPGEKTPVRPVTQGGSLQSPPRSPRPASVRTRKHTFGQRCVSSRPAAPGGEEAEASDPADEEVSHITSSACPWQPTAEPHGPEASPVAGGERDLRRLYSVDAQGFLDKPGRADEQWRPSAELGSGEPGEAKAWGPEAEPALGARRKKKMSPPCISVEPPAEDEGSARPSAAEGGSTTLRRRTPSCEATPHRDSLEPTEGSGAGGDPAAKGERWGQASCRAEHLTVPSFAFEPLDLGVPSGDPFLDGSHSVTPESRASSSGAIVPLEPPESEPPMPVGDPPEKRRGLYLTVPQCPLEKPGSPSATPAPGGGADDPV

Polyadenylate-binding protein 1, sequence (P11940 whole entry): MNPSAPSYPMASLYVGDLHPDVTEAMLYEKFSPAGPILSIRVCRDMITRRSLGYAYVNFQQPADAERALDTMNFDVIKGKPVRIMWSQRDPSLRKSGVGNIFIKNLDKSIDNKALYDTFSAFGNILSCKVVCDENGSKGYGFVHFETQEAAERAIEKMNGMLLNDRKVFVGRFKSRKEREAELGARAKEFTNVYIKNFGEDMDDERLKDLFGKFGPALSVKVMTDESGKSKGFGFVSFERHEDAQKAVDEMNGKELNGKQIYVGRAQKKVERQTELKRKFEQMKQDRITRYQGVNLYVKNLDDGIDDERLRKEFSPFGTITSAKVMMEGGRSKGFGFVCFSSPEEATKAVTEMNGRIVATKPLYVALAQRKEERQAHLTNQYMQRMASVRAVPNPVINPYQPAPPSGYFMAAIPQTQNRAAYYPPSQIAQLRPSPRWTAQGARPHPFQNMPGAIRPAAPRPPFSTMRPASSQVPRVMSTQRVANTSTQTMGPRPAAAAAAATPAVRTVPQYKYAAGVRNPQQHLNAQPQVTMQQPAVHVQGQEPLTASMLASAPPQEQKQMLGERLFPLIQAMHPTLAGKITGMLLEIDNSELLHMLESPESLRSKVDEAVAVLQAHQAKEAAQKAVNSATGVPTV

C=CCNC1=N[C@@H](c2cccc(C(F)(F)F)c2)C(C(=O)OC)=C(C)N1CC
IC50 [1]: 9.23 µM (active) | IC50 [2]: > 100 µM (inactive) | IC50 [3]: 3.56 µM (active) | IC50 [4]: 3.81 µM (active)

CCNc1ccc(C(=O)OCC(=O)NC(C)c2ccccc2)cc1[N+](=O)[O-] (stereo not drawn)
IC50 [5]: > 64 µM (inactive)

CC(=O)c1cccc(NC(=O)Cc2cccs2)c1
IC50 (Estrogen receptor): 18.5 µM (active)

CN1CCN(C2=C(Cl)C(=O)N(c3ccccc3Cl)C2=O)CC1
IC50 (Bcl-2-related protein A1 [6]): 1.45 µM (active) | IC50 [7]: > 100 µM (not active) | IC50 (Bcl-2-related protein A1 [8]): 2.16 µM (active)

O=C(CSc1nc2ccccc2c(=O)n1-c1ccccc1)NCC1CCCO1 (stereo not drawn)
IC50 [1]: 6.35 µM (active) | IC50 [2]: > 100 µM (inactive)

COc1ccccc1/C=C/CN1CCCC(CCC(=O)NCc2ccccc2F)C1 (stereo not drawn)
EC50 [9]: > 60 µM (not active) | EC50 [10]: < 0.1 µM (active) | EC50 [11]: 0.473 µM (active) | EC50 (cells [12]): 0.025 µM (active)

C=CCn1c(S)nnc1-c1ccoc1
IC50 [5]: > 64 µM (inactive)

Cc1ccc(OCCn2c(C3CC(=O)N(Cc4ccccc4)C3)nc3ccccc32)cc1 (stereo not drawn)
IC50 (cells [13]): 3.14 µM (active) | CC50 [14]: 25.4 µM (active)

O=C(O)c1ccc(N/N=C/c2ccc(OC(=O)c3cccc(Cl)c3)cc2)cc1
AC50 [15]: 1.21 µM (active) | IC50 [16]: 8.08 µM (active) | EC50 (Streptococcus): 15.5 µM (active) | EC50 (Streptokinase A): > 150 µM (not active) | AC50 [17]: 2.03 µM (active) | EC50 [18]: 0.834 µM (active) | IC50 [19]: 3.04 µM (not active) | AC50 [20]: 3.21 µM (active)

CCOC(=O)c1ccc2c(c1)[n+](CCO)c(C)n2CC
IC50 [1]: 3.29 µM (active) | IC50 [2]: > 100 µM (inactive)

COc1cccc(NC(=O)CSc2nc3ccccc3nc2N2CCCC2)c1
IC50 (cells [13]): 30.5 µM (active) | CC50 [14]: 17.2 µM (active)

COc1ccc(CCNCc2ccc(OCc3ccc(Cl)nc3)c(OC)c2)cc1OC
EC50 [9]: > 60 µM (inconclusive) | EC50 [10]: < 0.1 µM (active) | EC50 (cells [12]): 0.048 µM (active)

Clc1ccc(C[n+]2cc(-c3ccccc3)n3c2CCC3)cc1Cl
EC50 [21]: 3.76 µM (active) | EC50 [9]: > 30 µM (not active) | EC50 [10]: < 0.1 µM (active) | EC50 (cells [12]): 0.004 µM (active)

O=C1C(Cl)=C(N2CCOCC2)C(=O)N1c1cccc([N+](=O)[O-])c1
IC50 (Bcl-2-related protein A1 [6]): 8.21 µM (active) | IC50 [7]: > 100 µM (not active) | IC50 (Bcl-2-related protein A1 [8]): 9.68 µM (active)

O=C(NC1CCCCCCC1)C1CCN(S(=O)(=O)N2CCCC2)CC1
IC50 [5]: > 64 µM (inactive)

CN(C)C1=C(Cl)C(=O)N(c2ccc(Cl)c(Cl)c2)C1=O
IC50 (Bcl-2-related protein A1 [6]): 0.54 µM (active) | IC50 [7]: > 100 µM (not active) | IC50 (Bcl-2-related protein A1 [8]): 0.419 µM (active)

Cc1cc(NC(=O)CSc2cn(CCNC(=O)c3ccc(Cl)cc3)c3ccccc23)no1
IC50 (Estrogen receptor): 24.9 µM (active) | EC50 [22]: 0.13 µM (active)

CC(Oc1ccc(Cl)cc1Cl)C(=O)NNC(=O)C(=O)N1CCCCC1 (stereo not drawn)
IC50 (cells [13]): 40.6 µM (active) | CC50 [14]: > 50 µM (active)

Source: ChEMBL document CHEMBL1201862, “PubChem BioAssay data set” (2004)
